From PubChem BioAssay AID1963840 (Molecular Pharmacology Branch, DTP, NCI, 2024)

System: 695427-040-R-J1-PDC complex spheroid viability
Assay: Anticancer human tumor 695427-040-R-J1-PDC patient-derived colon adenocarcinoma cell line growth inhibition [POLQ]
Settings: for IC50: curve of first compound; for viability, T/C: stronger effect = lower value
Summary of the method: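 Growth inhibition in 3D: complex spheroids (tumor PDC, HUVEC, MSC) treated with POLQ inhibitor combinations; where Cmax unknown, highest tested concentration 10 microM, except SN-38 at 1 microM.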

[1] = second compound 0.0316 µM, first compound 0.00316 µM
[2] = second compound 0.0316 µM, first compound 0.01 µM
[3] = second compound 0.0316 µM, first compound 0.0316 µM
[4] = second compound 0.0316 µM, first compound 0.1 µM
[5] = second compound 0.0316 µM, first compound 0.316 µM
[6] = second compound 0.0316 µM, first compound 1 µM
[7] = second compound 0.1 µM, first compound 0.00316 µM
[8] = second compound 0.1 µM, first compound 0.01 µM
[9] = second compound 0.1 µM, first compound 0.0316 µM
[10] = second compound 0.1 µM, first compound 0.1 µM
[11] = second compound 0.1 µM, first compound 0.316 µM
[12] = second compound 0.1 µM, first compound 1 µM
[13] = second compound 0.316 µM, first compound 0.00316 µM
[14] = second compound 0.316 µM, first compound 0.01 µM
[15] = second compound 0.316 µM, first compound 0.0316 µM
[16] = second compound 0.316 µM, first compound 0.1 µM
[17] = second compound 0.316 µM, first compound 0.316 µM
[18] = second compound 0.316 µM, first compound 1 µM
[19] = second compound 1 µM, first compound 0.00316 µM
[20] = second compound 1 µM, first compound 0.01 µM
[21] = second compound 1 µM, first compound 0.0316 µM
[22] = second compound 1 µM, first compound 0.1 µM
[23] = second compound 1 µM, first compound 0.316 µM
[24] = second compound 1 µM, first compound 1 µM
[25] = second compound 3.16 µM, first compound 0.00316 µM
[26] = second compound 3.16 µM, first compound 0.01 µM
[27] = second compound 3.16 µM, first compound 0.0316 µM
[28] = second compound 3.16 µM, first compound 0.1 µM
[29] = second compound 3.16 µM, first compound 0.316 µM
[30] = second compound 3.16 µM, first compound 1 µM
[31] = second compound 10 µM, first compound 0.00316 µM
[32] = second compound 10 µM, first compound 0.01 µM
[33] = second compound 10 µM, first compound 0.0316 µM
[34] = second compound 10 µM, first compound 0.1 µM
[35] = second compound 10 µM, first compound 0.316 µM
[36] = second compound 10 µM, first compound 1 µM
[37] = second compound 0.0316 µM, first compound 3.16 µM
[38] = second compound 0.0316 µM, first compound 10 µM
[39] = second compound 0.1 µM, first compound 3.16 µM
[40] = second compound 0.1 µM, first compound 10 µM
[41] = second compound 0.316 µM, first compound 3.16 µM
[42] = second compound 0.316 µM, first compound 10 µM
[43] = second compound 1 µM, first compound 3.16 µM
[44] = second compound 1 µM, first compound 10 µM
[45] = second compound 3.16 µM, first compound 3.16 µM
[46] = second compound 3.16 µM, first compound 10 µM
[47] = second compound 10 µM, first compound 3.16 µM
[48] = second compound 10 µM, first compound 10 µM
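Also: spheroids exposed to compounds for seven days.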
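For viability, T/C in this document: 100% = DMSO vehicle control viability.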

## C=CCn1c(=O)c2cnc(Nc3ccc(N4CCN(C)CC4)cc3)nc2n1-c1cccc(C(C)(C)O)n1 + Cc1cccc(N(C)C(=O)C2C(O)CCN2c2nc(C)cc(C(F)(F)F)c2C#N)c1
Second compound 0.0316 µM
  IC50: > 1000 nM
Second compound 0.1 µM
  IC50: > 1000 nM
Second compound 0.316 µM
  IC50: > 1000 nM
Second compound 1 µM
  IC50: > 1000 nM
Second compound 3.16 µM
  IC50: > 1000 nM
Second compound 10 µM
  IC50: > 1000 nM
[1]
  viability, T/C: 100%
[2]
  viability, T/C: 99.4%
[3]
  viability, T/C: 101%
[4]
  viability, T/C: 92.6%
[5]
  viability, T/C: 94.3%
[6]
  viability, T/C: 83.6%
[7]
  viability, T/C: 115%
[8]
  viability, T/C: 108%
[9]
  viability, T/C: 93.2%
[10]
  viability, T/C: 103%
[11]
  viability, T/C: 93.4%
[12]
  viability, T/C: 69.5%
[13]
  viability, T/C: 105%
[14]
  viability, T/C: 121%
[15]
  viability, T/C: 95.5%
[16]
  viability, T/C: 92.5%
[17]
  viability, T/C: 107%
[18]
  viability, T/C: 90.1%
[19]
  viability, T/C: 109%
[20]
  viability, T/C: 95.9%
[21]
  viability, T/C: 102%
[22]
  viability, T/C: 100%
[23]
  viability, T/C: 98.1%
[24]
  viability, T/C: 64.2%
[25]
  viability, T/C: 91.8%
[26]
  viability, T/C: 90.8%
[27]
  viability, T/C: 88.9%
[28]
  viability, T/C: 89.3%
[29]
  viability, T/C: 91.4%
[30]
  viability, T/C: 69.5%
[31]
  viability, T/C: 93.9%
[32]
  viability, T/C: 89.3%
[33]
  viability, T/C: 87.7%
[34]
  viability, T/C: 92.7%
[35]
  viability, T/C: 91.4%
[36]
  viability, T/C: 67.9%

## CCCS(=O)(=O)Nc1ccc(F)c(C(=O)c2c[nH]c3ncc(-c4ccc(Cl)cc4)cc23)c1F + Cc1cccc(N(C)C(=O)C2C(O)CCN2c2nc(C)cc(C(F)(F)F)c2C#N)c1
Second compound 0.0316 µM
  IC50: > 10000 nM
Second compound 0.1 µM
  IC50: > 10000 nM
Second compound 0.316 µM
  IC50: > 10000 nM
Second compound 1 µM
  IC50: > 10000 nM
Second compound 3.16 µM
  IC50: > 10000 nM
Second compound 10 µM
  IC50: > 10000 nM
[3]
  viability, T/C: 113%
[4]
  viability, T/C: 105%
[5]
  viability, T/C: 102%
[6]
  viability, T/C: 100%
[37]
  viability, T/C: 116%
[38]
  viability, T/C: 86.8%
[9]
  viability, T/C: 129%
[10]
  viability, T/C: 111%
[11]
  viability, T/C: 104%
[12]
  viability, T/C: 109%
[39]
  viability, T/C: 111%
[40]
  viability, T/C: 82.6%
[15]
  viability, T/C: 101%
[16]
  viability, T/C: 118%
[17]
  viability, T/C: 96.3%
[18]
  viability, T/C: 109%
[41]
  viability, T/C: 123%
[42]
  viability, T/C: 77.5%
[21]
  viability, T/C: 112%
[22]
  viability, T/C: 111%
[23]
  viability, T/C: 102%
[24]
  viability, T/C: 108%
[43]
  viability, T/C: 127%
[44]
  viability, T/C: 73.2%
[27]
  viability, T/C: 100%
[28]
  viability, T/C: 104%
[29]
  viability, T/C: 103%
[30]
  viability, T/C: 114%
[45]
  viability, T/C: 112%
[46]
  viability, T/C: 104%
[33]
  viability, T/C: 101%
[34]
  viability, T/C: 100%
[35]
  viability, T/C: 92%
[36]
  viability, T/C: 98.8%
[47]
  viability, T/C: 108%
[48]
  viability, T/C: 77.9%

## CNCc1ccc(-c2[nH]c3cc(F)cc4c3c2CCNC4=O)cc1 + Cc1cccc(N(C)C(=O)C2C(O)CCN2c2nc(C)cc(C(F)(F)F)c2C#N)c1
Second compound 0.0316 µM
  IC50: > 10000 nM
Second compound 0.1 µM
  IC50: > 10000 nM
Second compound 0.316 µM
  IC50: > 10000 nM
Second compound 1 µM
  IC50: > 10000 nM
Second compound 3.16 µM
  IC50: > 10000 nM
Second compound 10 µM
  IC50: > 10000 nM
[3]
  viability, T/C: 102%
[4]
  viability, T/C: 104%
[5]
  viability, T/C: 105%
[6]
  viability, T/C: 96.8%
[37]
  viability, T/C: 108%
[38]
  viability, T/C: 109%
[9]
  viability, T/C: 111%
[10]
  viability, T/C: 100%
[11]
  viability, T/C: 95.9%
[12]
  viability, T/C: 95.3%
[39]
  viability, T/C: 105%
[40]
  viability, T/C: 108%
[15]
  viability, T/C: 104%
[16]
  viability, T/C: 99.3%
[17]
  viability, T/C: 104%
[18]
  viability, T/C: 103%
[41]
  viability, T/C: 102%
[42]
  viability, T/C: 99.6%
[21]
  viability, T/C: 92.7%
[22]
  viability, T/C: 93.9%
[23]
  viability, T/C: 93.6%
[24]
  viability, T/C: 98%
[43]
  viability, T/C: 110%
[44]
  viability, T/C: 102%
[27]
  viability, T/C: 99%
[28]
  viability, T/C: 98.1%
[29]
  viability, T/C: 98.4%
[30]
  viability, T/C: 103%
[45]
  viability, T/C: 108%
[46]
  viability, T/C: 104%
[33]
  viability, T/C: 92.3%
[34]
  viability, T/C: 92.1%
[35]
  viability, T/C: 88.9%
[36]
  viability, T/C: 93.2%
[47]
  viability, T/C: 104%
[48]
  viability, T/C: 104%

## COc1cccc(OCCCN)c1-c1cc(Nc2cnc(C#N)cn2)n[nH]1 + Cc1cccc(N(C)C(=O)C2C(O)CCN2c2nc(C)cc(C(F)(F)F)c2C#N)c1
Second compound 0.0316 µM
  IC50: > 1000 nM
Second compound 0.1 µM
  IC50: > 1000 nM
Second compound 0.316 µM
  IC50: > 1000 nM
Second compound 1 µM
  IC50: > 1000 nM
Second compound 3.16 µM
  IC50: > 1000 nM
Second compound 10 µM
  IC50: 295 nM
[1]
  viability, T/C: 95.4%
[2]
  viability, T/C: 107%
[3]
  viability, T/C: 96%
[4]
  viability, T/C: 82.5%
[5]
  viability, T/C: 70.5%
[6]
  viability, T/C: 51%
[7]
  viability, T/C: 109%
[8]
  viability, T/C: 95.7%
[9]
  viability, T/C: 88.3%
[10]
  viability, T/C: 80.1%
[11]
  viability, T/C: 71.3%
[12]
  viability, T/C: 48.3%
[13]
  viability, T/C: 105%
[14]
  viability, T/C: 97.5%
[15]
  viability, T/C: 87%
[16]
  viability, T/C: 77%
[17]
  viability, T/C: 67.8%
[18]
  viability, T/C: 52.5%
[19]
  viability, T/C: 105%
[20]
  viability, T/C: 95.3%
[21]
  viability, T/C: 91.6%
[22]
  viability, T/C: 75%
[23]
  viability, T/C: 70.4%
[24]
  viability, T/C: 51.8%
[25]
  viability, T/C: 100%
[26]
  viability, T/C: 87.8%
[27]
  viability, T/C: 86.5%
[28]
  viability, T/C: 82%
[29]
  viability, T/C: 69.7%
[30]
  viability, T/C: 55.3%
[31]
  viability, T/C: 85.9%
[32]
  viability, T/C: 89.1%
[33]
  viability, T/C: 75.8%
[34]
  viability, T/C: 63.7%
[35]
  viability, T/C: 48.8%
[36]
  viability, T/C: 43.5%
